This is an account of results in US8247377B2, “Non-steroidal glucocorticoid inhibitors and their use in treating inflammation, allergy and auto-immune conditions” (Glaxo Group Limited, priority 2006, dated 2012).

For one experiment, the system named is NFκB. Put plainly: NFκB agonist assay in A549 SPAP cells.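 As to average maximum asymptote in the NFkB assay: maximum inhibition of the TNFα-induced NFκB-driven signal.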 Format: cell-based. The settings on record: Homo sapiens; for Emax: A549, A549 SPAP cells, >85% = full agonist, ≧20% = partial or full agonist, read-out: average maximum asymptote in the NFkB assay; for IC50: A549 SPAP cells, TNFα 3.2 ng/ml, read-out: pIC50 for the NFkB assay (converted). Summed up: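 A549 cells stably carrying an ELAM/NFκB-driven SPAP reporter were pre-incubated 1 h at 37° C with compound, then stimulated with TNFα (3.2 ng/ml final) for 15 h. SPAP activity read colorimetrically with pNPP at 405 nm after ~1 h; pIC50 estimated from dose-response curves.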

A further experiment addresses T1, progesterone receptor (Homo sapiens, UniProt P06401).
T1 construct: expressed in transfected cells; host or cells: CV-1 cells transduced with PRb-BacMam and MMTV-BacMam
T1 sequence (P06401 1-933): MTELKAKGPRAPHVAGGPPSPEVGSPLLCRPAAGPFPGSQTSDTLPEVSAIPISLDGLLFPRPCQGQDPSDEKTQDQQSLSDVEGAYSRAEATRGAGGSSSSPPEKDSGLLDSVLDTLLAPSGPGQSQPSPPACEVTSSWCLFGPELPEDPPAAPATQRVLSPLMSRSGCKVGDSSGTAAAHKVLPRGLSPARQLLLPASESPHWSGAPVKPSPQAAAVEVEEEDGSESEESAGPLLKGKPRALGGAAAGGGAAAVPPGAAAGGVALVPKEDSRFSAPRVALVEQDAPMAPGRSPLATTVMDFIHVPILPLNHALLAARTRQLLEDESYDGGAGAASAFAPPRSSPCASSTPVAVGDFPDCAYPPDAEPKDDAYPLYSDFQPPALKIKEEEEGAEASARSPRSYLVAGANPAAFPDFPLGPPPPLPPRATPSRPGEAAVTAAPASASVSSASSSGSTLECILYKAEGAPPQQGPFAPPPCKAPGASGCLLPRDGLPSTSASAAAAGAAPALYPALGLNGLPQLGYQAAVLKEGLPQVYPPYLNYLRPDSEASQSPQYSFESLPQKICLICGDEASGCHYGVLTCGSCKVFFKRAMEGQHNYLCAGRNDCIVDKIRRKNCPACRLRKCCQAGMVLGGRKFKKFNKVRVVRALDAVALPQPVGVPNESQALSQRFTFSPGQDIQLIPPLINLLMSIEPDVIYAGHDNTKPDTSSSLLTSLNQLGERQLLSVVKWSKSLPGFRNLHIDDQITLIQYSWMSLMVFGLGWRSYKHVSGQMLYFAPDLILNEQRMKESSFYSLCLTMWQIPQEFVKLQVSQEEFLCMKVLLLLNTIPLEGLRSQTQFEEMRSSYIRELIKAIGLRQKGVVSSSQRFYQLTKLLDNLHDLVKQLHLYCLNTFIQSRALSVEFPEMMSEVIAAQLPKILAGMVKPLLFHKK
Put plainly: Assay for progesterone receptor activity (CV-1 cells, PRb-BacMam/MMTV-BacMam). Format: cell-based. The settings on record: CV-1 cells transduced with PRb-BacMam and MMTV-BacMam; read-out: pEC50 progesterone receptor activity (converted). A digest of the protocol:
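CV-1 cells co-transduced with PRb-BacMam and MMTV-BacMam (10% each), seeded onto compounds in DMEM with 10% serum. After 24 h, luminescence was read with Steadylite. pEC50 values were estimated from dose-response curves.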

For the molecule `Nc1c(C(=O)NCC(O)(CN(CCF)C(=O)c2c(F)cccc2C(F)(F)F)C(F)(F)F)cnn1-c1ccc(F)cc1` (racemic) [Example 18 (racemic), 5-amino-1-(4-fluorophenyl)-N-{3,3,3-trifluoro-2-[((2-fluoroethyl){[2-fluoro-6-(trifluoromethyl)phenyl]carbonyl}amino)methyl]-2-hydroxypropyl}-1H-pyrazole-4-carboxamide], in the experiment with NFκB, the Emax was > 85% and the IC50 is < 1000 nM. Besides, the EC50 on progesterone receptor is > 1000 nM.

As to `Nc1c(C(=O)NCC(O)(CNC(=O)c2c(F)cccc2C(F)(F)F)C(F)(F)F)cnn1-c1ccc(F)cc1` (racemic) [Example 19 (racemic), 5-amino-1-(4-fluorophenyl)-N-{3,3,3-trifluoro-2-[({[2-fluoro-6-(trifluoromethyl)phenyl]carbonyl}amino)methyl]-2-hydroxypropyl}-1H-pyrazole-4-carboxamide], in the experiment on NFκB, the Emax is ≥ 20% and the IC50 is < 1000 nM. The EC50 at progesterone receptor is > 1000 nM.

Consider `CN(CC(O)(CNC(=O)c1cnn(-c2ccc(F)cc2)c1N)C(F)(F)F)C(=O)c1c(F)cccc1C(F)(F)F` (racemic) [Example 21 (racemic), 5-amino-1-(4-fluorophenyl)-N-(3,3,3-trifluoro-2-{[{[2-fluoro-6-(trifluoromethyl)phenyl]carbonyl}(methyl)amino]methyl}-2-hydroxypropyl)-1H-pyrazole-4-carboxamide], for which, in the experiment with NFκB, the Emax is > 85% and the IC50 is < 1000 nM. Also, the EC50 at progesterone receptor was > 1000 nM.

For the molecule `CN(CC(O)(CNC(=O)c1cnn(-c2ccc(F)cc2)c1N)C(F)(F)F)C(=O)c1c(C(F)(F)F)cccc1C(F)(F)F` (racemic) [Example 22 (racemic), 5-amino-N-(2-{[{[2,6-bis(trifluoromethyl)phenyl]carbonyl}(methyl)amino]methyl}-3,3,3-trifluoro-2-hydroxypropyl)-1-(4-fluorophenyl)-1H-pyrazole-4-carboxamide], in the experiment on NFκB, the Emax was > 85% and the IC50 is < 1000 nM. Moreover, the EC50 at progesterone receptor is > 1000 nM.

Consider `CCN(CC(O)(CNC(=O)c1cnn(-c2ccc(F)cc2)c1N)C(F)(F)F)C(=O)c1c(F)cccc1C(F)(F)F` (racemic) [Example 23 (racemic), 5-amino-N-{2-[(ethyl{[2-fluoro-6-(trifluoromethyl)phenyl]carbonyl}amino)methyl]-3,3,3-trifluoro-2-hydroxypropyl}-1-(4-fluorophenyl)-1H-pyrazole-4-carboxamide], for which, in the experiment on NFκB, the Emax was > 85% and the IC50 was < 1000 nM. At progesterone receptor, the EC50 was > 1000 nM.

Consider `CCN(CC(O)(CNC(=O)c1cnn(-c2ccc(F)cc2)c1N)C(F)(F)F)C(=O)c1c(Cl)cccc1Br` (racemic) [Example 24 (racemic), 5-amino-N-(2-{[[(2-bromo-6-chlorophenyl)carbonyl](ethyl)amino]methyl}-3,3,3-trifluoro-2-hydroxypropyl)-1-(4-fluorophenyl)-1H-pyrazole-4-carboxamide], for which, in the experiment on NFκB, the Emax was > 85% and the IC50 was < 1000 nM. On progesterone receptor, the EC50 is > 1000 nM.

In the case of `CCN(CC(O)(CNC(=O)c1cnn(-c2ccc(F)cc2)c1N)C(F)(F)F)C(=O)c1c(Cl)cccc1OC(F)F` (racemic) [Example 25 (racemic), 5-amino-N-(2-{[({2-chloro-6-[(difluoromethyl)oxy]phenyl}carbonyl)(ethyl)amino]methyl}-3,3,3-trifluoro-2-hydroxypropyl)-1-(4-fluorophenyl)-1H-pyrazole-4-carboxamide], in the experiment on NFκB, the Emax is > 85% and the IC50 was < 1000 nM. For the same molecule, the EC50 at progesterone receptor is > 1000 nM.

On to `CCN(CC(O)(CNC(=O)c1cnn(-c2ccc(F)cc2)c1N)C(F)(F)F)C(=O)c1c(OC(F)F)cccc1OC(F)F` (racemic) [Example 26 (racemic), 5-amino-N-(2-{[({2,6-bis[(difluoromethyl)oxy]phenyl}carbonyl)(ethyl)amino]methyl}-3,3,3-trifluoro-2-hydroxypropyl)-1-(4-fluorophenyl)-1H-pyrazole-4-carboxamide], for which, in the experiment with NFκB, the Emax was > 85% and the IC50 was < 1000 nM. Also, the EC50 on progesterone receptor was > 1000 nM.

As for `CCN(CC(O)(CNC(=O)c1cnn(-c2ccc(F)cc2)c1N)C(F)(F)F)C(=O)c1c(C(F)(F)F)cccc1C(F)(F)F` (racemic) [Example 27 (racemic), 5-amino-N-(2-{[{[2,6-bis(trifluoromethyl)phenyl]carbonyl}(ethyl)amino]methyl}-3,3,3-trifluoro-2-hydroxypropyl)-1-(4-fluorophenyl)-1H-pyrazole-4-carboxamide], in the experiment with NFκB, the Emax was > 85% and the IC50 was < 1000 nM. The EC50 at progesterone receptor is > 1000 nM.

As to `Nc1c(C(=O)NCC(O)(CN(CCF)C(=O)c2c(Cl)cccc2Cl)C(F)(F)F)cnn1-c1ccc(F)cc1` (racemic) [Example 28 (racemic), 5-amino-N-(2-{[[(2,6-dichlorophenyl)carbonyl](2-fluoroethyl)amino]methyl}-3,3,3-trifluoro-2-hydroxypropyl)-1-(4-fluorophenyl)-1H-pyrazole-4-carboxamide], in the experiment with NFκB, the Emax was > 85% and the IC50 is < 1000 nM. On progesterone receptor, the EC50 was > 1000 nM.

Take `Nc1c(C(=O)NCC(O)(CN(CCF)C(=O)c2c(Cl)cccc2Br)C(F)(F)F)cnn1-c1ccc(F)cc1` (racemic) [Example 30 (racemic), 5-amino-N-(2-{[[(2-bromo-6-chlorophenyl)carbonyl](2-fluoroethyl)amino]methyl}-3,3,3-trifluoro-2-hydroxypropyl)-1-(4-fluorophenyl)-1H-pyrazole-4-carboxamide]: in the experiment on NFκB, the Emax is > 85% and the IC50 is < 1000 nM. Moreover, the EC50 on progesterone receptor was > 1000 nM.

With `Nc1c(C(=O)NCC(O)(CN(CCF)C(=O)c2c(Cl)cccc2OC(F)F)C(F)(F)F)cnn1-c1ccc(F)cc1` (racemic) [Example 31 (racemic), 5-amino-N-(2-{[({2-chloro-6-[(difluoromethyl)oxy]phenyl}carbonyl)(2-fluoroethyl)amino]methyl}-3,3,3-trifluoro-2-hydroxypropyl)-1-(4-fluorophenyl)-1H-pyrazole-4-carboxamide], in the experiment with NFκB, the Emax is > 85% and the IC50 was < 1000 nM. The EC50 on progesterone receptor is > 1000 nM.

As for `CCN(CC(O)(CNC(=O)c1cnn(-c2ccc(F)c(F)c2)c1N)C(F)(F)F)C(=O)c1c(F)cccc1F` (racemic) [Example 33 (racemic), 5-amino-1-(3,4-difluorophenyl)-N-(2-{[[(2,6-difluorophenyl)carbonyl](ethyl)amino]methyl}-3,3,3-trifluoro-2-hydroxypropyl)-1H-pyrazole-4-carboxamide], in the experiment on NFκB, the Emax was > 85% and the IC50 was < 1000 nM. In addition, the EC50 on progesterone receptor was > 1000 nM.

On to `CCN(CC(O)(CNC(=O)c1cnn(-c2ccc(F)cc2F)c1N)C(F)(F)F)C(=O)c1c(F)cccc1F` (racemic) [Example 34 (racemic), 5-amino-1-(2,4-difluorophenyl)-N-(2-{[[(2,6-difluorophenyl)carbonyl](ethyl)amino]methyl}-3,3,3-trifluoro-2-hydroxypropyl)-1H-pyrazole-4-carboxamide], for which, in the experiment with NFκB, the Emax was > 85% and the IC50 was < 1000 nM. Moreover, the EC50 on progesterone receptor is > 1000 nM.

For `CCN(CC(O)(CNC(=O)c1cnn(-c2cc(F)cc(F)c2)c1N)C(F)(F)F)C(=O)c1c(F)cccc1F` (racemic) [Example 35 (racemic), 5-amino-1-(3,5-difluorophenyl)-N-(2-{[[(2,6-difluorophenyl)carbonyl](ethyl)amino]methyl}-3,3,3-trifluoro-2-hydroxypropyl)-1H-pyrazole-4-carboxamide], in the experiment on NFκB, the Emax was > 85% and the IC50 is < 1000 nM. Moreover, the EC50 at progesterone receptor is > 1000 nM.

As to `CCN(CC(O)(CNC(=O)c1cnn(-c2cc(F)ccc2F)c1N)C(F)(F)F)C(=O)c1c(F)cccc1F` (racemic) [Example 36 (racemic), 5-amino-1-(2,5-difluorophenyl)-N-(2-{[[(2,6-difluorophenyl)carbonyl](ethyl)amino]methyl}-3,3,3-trifluoro-2-hydroxypropyl)-1H-pyrazole-4-carboxamide], in the experiment on NFκB, the Emax is > 85% and the IC50 is < 1000 nM. Besides, on progesterone receptor, the EC50 is > 1000 nM.
